ED50 data for one compound are collected here from patent US8101761B2, “(E)-N-{3-[1-(8-fluoro-11H-10-OXA-1-AZA-dibenzo [A,D] cyclohepten-5ylidene)-propyl]-phenyl}-methanesulfonamide as glucocorticoid receptor modulator for the treatment of rheumatoid arthritis” (Eli Lilly and Company, priority 2008, dated 2012).

Where two headings read alike, the source gives them in different places. Bounds are passed on as bounds.

As usually defined, the ED50 is the midpoint of the dose-response relation.

The test relates to carrageenan-induced paw edema in male Sprague-Dawley rats. Put plainly: Carrageenan-induced paw edema (CPE) model. The format is in vivo. Conditions: rat, oral gavage 2 h before carrageenan, paws taken 3 h after, mean of 5 determinations. The text has this:
Carrageenans are a group of polysaccharides which can induce an acute inflammatory response in animals. Cardinal signs of inflammation including edema, hyperalgesia and erythema are developed in the injection site immediately following injection. The CPE model is a recognized model of inflammation and can be used to evaluate the anti-inflammatory effects of glucocorticoid receptor ligands.
To evaluate the anti-inflammatory effects of Compound (I), the compound is formulated in a vehicle comprising 0.5% carboxymethyl cellulose and 0.25% Tween 80 then administered orally via gavage to male Sprague-Dawley rats (180-200 g). For comparison, prednisolone may be administered orally in the same vehicle. Two hours later, 1% carrageenan in 50 μl of 0.9% pyrogen free saline is injected into the subplantar regions of the right hind paw. Rats are euthanized by CO2 at 3 hours after the carrageenan injection. Paws are removed then weighed using a microbalance. Paws are then dissected by making several cuts on the paw surface and immediately immersing into liquid nitrogen until frozen. Frozen paws are then centrifuged to extract the exudates. Exudate levels of IL-1β, a cytokine generated during the inflammatory response is then measured by ELISA according to manufacturers instructions. Total paw protein is also measured using a protein assay kit and the absolute level of IL-1β is normalized to yield a concentration value of ng IL-1β/mg total protein.
Background: In the carrageenan paw model, swelling and tenderness develop within hours.

With `C[C@]12C=CC(=O)C=C1CC[C@@H]1[C@@H]2[C@@H](O)C[C@@]2(C)[C@H]1CC[C@]2(O)C(=O)CO` [prednisolone, reference compound], the ED50 was about 6.6 mg/kg (read-out: ED50, inhibition of carrageenan induced paw weight gain) and under 1 mg/kg (read-out: ED50, reduction of paw exudate levels of IL-1β).
